Test results as given in ChEMBL document CHEMBL4765365, “Design, synthesis and antitumour evaluation of pyrrolo[1,2-f]-phenanthridine and dibenzo[f,h]pyrrolo[1,2-b]isoquinoline derivatives” (Eur J Med Chem, 2020).
Calls of active or inactive are those of the source. The calls are words filed in the database; no cut-off is given here.

What was measured:
[1] = tested on: HCT-116; test: Induction of cell cycle arrest in human HCT-116 cells assessed as G1 phase at 1.5 uM measured at 0 hrs by PI staining based flow cytometry analysis (reference value: 52 +/- 5.1 %); assay type: functional
[2] = tested on: HCT-116; test: Induction of cell cycle arrest in human HCT-116 cells assessed as S phase at 0.75 uM incubated for 36 hrs by PI staining based flow cytometry analysis (reference value: 7.9 +/- 3.7 %); assay type: functional
[3] = tested on: dsDNA; test: Induction of pBR322 DNA interstand crosslink at 1 to 20 uM incubated for 2 hrs by agarose gel electrophoresis assay; conditions: dose 1-20 µM
[4] = tested on: HCT-116; test: Induction of cell cycle arrest in human HCT-116 cells assessed as G0 phase at 0.375 uM incubated for 12 hrs by PI staining based flow cytometry analysis (reference value: 2.2 +/- 1.7 %); assay type: functional
[5] = tested on: NCI-H460; test: Cytotoxicity against human NCI-H460 cells assessed as reduction in cell viability incubated for 72 hrs by XTT assay; assay type: functional, cell-based; conditions: NCI-H460, 72 h
[6] = tested on: NCI-H460; test: Induction of cell cycle arrest in human NCI-H460 cells assessed as G2/M phase at 3 uM incubated for 12 hrs by PI staining based flow cytometry analysis (reference value: 22.9 +/- 6.8 %); assay type: functional
[7] = tested on: NCI-H460; test: Induction of cell cycle arrest in human NCI-H460 cells assessed as G0 phase at 0.75 uM incubated for 12 hrs by PI staining based flow cytometry analysis (reference value: 2.9 +/- 2.4 %); assay type: functional
[8] = tested on: NCI-H460; test: Induction of cell cycle arrest in human NCI-H460 cells assessed as S phase at 1.5 uM incubated for 24 hrs by PI staining based flow cytometry analysis (reference value: 11.7 +/- 6.1 %); assay type: functional
[9] = tested on: NCI-H1650; test: Cytotoxicity against human NCI-H1650 cells assessed as reduction in cell viability incubated for 72 hrs by XTT assay; assay type: functional, cell-based; conditions: NCI-H1650, 72 h
[10] = tested on: NCI-H460; test: Induction of cell cycle arrest in human NCI-H460 cells assessed as G1 phase at 1.5 uM incubated for 12 hrs by PI staining based flow cytometry analysis (reference value: 66 +/- 10 %); assay type: functional
[11] = tested on: NCI-H460; test: Induction of apoptosis in human NCI-H460 cells assessed as early apoptotic cells at 1.5 uM incubated for 48 hrs by annexin V-FITC and PI staining based flow cytometry analysis (reference value: 2 %); assay type: functional
[12] = tested on: HCT-116; test: Induction of cell cycle arrest in human HCT-116 cells assessed as G0 phase at 0.75 uM measured at 0 hrs by PI staining based flow cytometry analysis (reference value: 0.7 +/- 0.2 %); assay type: functional
[13] = tested on: NCI-H460; test: Induction of apoptosis in human NCI-H460 cells assessed as late apoptotic cells at 3 uM incubated for 48 hrs by annexin V-FITC and PI staining based flow cytometry analysis (reference value: 7.3 %); assay type: functional
[14] = tested on: HCT-116; test: Induction of cell cycle arrest in human HCT-116 cells assessed as S phase at 1.5 uM measured at 0 hrs by PI staining based flow cytometry analysis (reference value: 12.4 +/- 6.2 %); assay type: functional
[15] = tested on: NCI-H460; test: Induction of cell cycle arrest in human NCI-H460 cells assessed as G2/M phase at 3 uM incubated for 36 hrs by PI staining based flow cytometry analysis (reference value: 25 +/- 1.2 %); assay type: functional
[16] = tested on: NCI-H460; test: Induction of cell cycle arrest in human NCI-H460 cells assessed as S phase at 0.75 uM incubated for 12 hrs by PI staining based flow cytometry analysis (reference value: 11.2 +/- 4.3 %); assay type: functional
[17] = tested on: HCT-116; test: Induction of cell cycle arrest in human HCT-116 cells assessed as G2/M phase at 1.5 uM measured at 0 hrs by PI staining based flow cytometry analysis (reference value: 28.9 +/- 1.4 %); assay type: functional
[18] = tested on: HCT-116; test: Induction of cell cycle arrest in human HCT-116 cells assessed as G0 phase at 0.375 uM measured at 0 hrs by PI staining based flow cytometry analysis (reference value: 0.7 +/- 0.2 %); assay type: functional
[19] = tested on: NCI-H460; test: Induction of cell cycle arrest in human NCI-H460 cells assessed as G0 phase at 1.5 uM incubated for 36 hrs by PI staining based flow cytometry analysis (reference value: 2.8 +/- 0.7 %); assay type: functional
[20] = tested on: HCT-116; test: Induction of cell cycle arrest in human HCT-116 cells assessed as G0 phase at 1.5 uM incubated for 36 hrs by PI staining based flow cytometry analysis (reference value: 2.5 +/- 0.8 %); assay type: functional
[21] = tested on: HCT-116; test: Induction of cell cycle arrest in human HCT-116 cells assessed as G0 phase at 1.5 uM incubated for 12 hrs by PI staining based flow cytometry analysis (reference value: 2.2 +/- 1.7 %); assay type: functional
[22] = tested on: NCI-H460; test: Induction of cell cycle arrest in human NCI-H460 cells assessed as S phase at 1.5 uM incubated for 12 hrs by PI staining based flow cytometry analysis (reference value: 11.2 +/- 4.3 %); assay type: functional
[23] = tested on: NCI-H460; test: Induction of cell cycle arrest in human NCI-H460 cells assessed as G2/M phase at 1.5 uM measured at 0 hrs by PI staining based flow cytometry analysis (reference value: 25.2 +/- 4 %); assay type: functional
[24] = tested on: NCI-H460; test: Induction of cell cycle arrest in human NCI-H460 cells assessed as S phase at 3 uM incubated for 24 hrs by PI staining based flow cytometry analysis (reference value: 11.7 +/- 6.1 %); assay type: functional
[25] = tested on: NCI-H460; test: Induction of cell cycle arrest in human NCI-H460 cells assessed as G0 phase at 3 uM measured at 0 hrs by PI staining based flow cytometry analysis (reference value: 1.3 +/- 0.9 %); assay type: functional
[26] = tested on: HCT-116; test: Induction of cell cycle arrest in human HCT-116 cells assessed as S phase at 0.375 uM measured at 0 hrs by PI staining based flow cytometry analysis (reference value: 12.4 +/- 6.2 %); assay type: functional
[27] = tested on: NCI-H460; test: Induction of cell cycle arrest in human NCI-H460 cells assessed as G2/M phase at 0.75 uM incubated for 36 hrs by PI staining based flow cytometry analysis (reference value: 25 +/- 1.2 %); assay type: functional
[28] = tested on: NCI-H460; test: Induction of cell cycle arrest in human NCI-H460 cells assessed as G2/M phase at 0.75 uM measured at 0 hrs by PI staining based flow cytometry analysis (reference value: 25.2 +/- 4 %); assay type: functional
[29] = tested on: NCI-H460; test: Induction of cell cycle arrest in human NCI-H460 cells assessed as G0 phase at 0.75 uM measured at 0 hrs by PI staining based flow cytometry analysis (reference value: 1.3 +/- 0.9 %); assay type: functional
[30] = tested on: HCT-116; test: Induction of cell cycle arrest in human HCT-116 cells assessed as G0 phase at 0.75 uM incubated for 24 hrs by PI staining based flow cytometry analysis (reference value: 12.5 +/- 5.4 %); assay type: functional
[31] = tested on: HCT-116; test: Induction of cell cycle arrest in human HCT-116 cells assessed as G0 phase at 1.5 uM measured at 0 hrs by PI staining based flow cytometry analysis (reference value: 0.7 +/- 0.2 %); assay type: functional
[32] = tested on: NCI-H460; test: Induction of cell cycle arrest in human NCI-H460 cells assessed as G0 phase at 1.5 uM measured at 0 hrs by PI staining based flow cytometry analysis (reference value: 1.3 +/- 0.9 %); assay type: functional

Activity [3]: Active
Structure (SMILES): OCc1cn2c3ccccc3c3ccccc3c2c1CO
Activity [1]: 53.6%
Activity [2]: 5.1%
Activity [4]: 1.8%
IC50 [5]: 3.14 µM
Activity [6]: 22.8%
Activity [7]: 3.7%
Activity [8]: 8.6%
IC50 [9]: 3.73 µM
Activity [10]: 50.7%
Activity [11]: 3.6%
Activity [12]: 0.8%
Activity [13]: 51.4%
Activity [14]: 12.6%
Activity [15]: 25.6%
Activity [16]: 14.2%
Activity [17]: 28.5%
Activity [18]: 0.6%
Activity [19]: 3.3%
Activity [20]: 18.2%
Activity [21]: 1.9%
Activity [22]: 16.3%
Activity [23]: 23.9%
Activity [24]: 10.9%
Activity [25]: 1.3%
Activity [26]: 12.4%
Activity [27]: 20.9%
Activity [28]: 24.2%
Activity [29]: 1.8%
Activity [30]: 2.7%
Activity [31]: 2.2%
Activity [32]: 1.4%
